By IC50 is commonly meant the concentration that inhibits the measured activity by half.

These results are taken from patent US20190119251A1, “AMIDE-SUBSTITUTED ARYLTRIAZOLE DERIVATIVES AND USES THEREOF” (BAYER PHARMA AKTIENGESELLSCHAFT, priority 2016, published 2019).

The target in test [1] is T1, human V1a receptor (Homo sapiens, UniProt P37288).
T1 construct: expressed in transfected cells; host or cells: CHO K1 (Chinese hamster ovary), also stably transfected with modified aequorin
Description: Cellular in vitro assay for determining vasopressin receptor activity (V1a cell line, aequorin luminescence). It counts as cell-based. The settings on record: for IC50: CHO cell line transfected with the human V1a receptor, agonist [Arg8]-vasopressin at EC50 concentration, read-out: IC50 hV1a; for ratio IC50 hV2/hV1a: ratio of cellular IC50 values, human V2 over human V1a. The method, then: (§1) B-1. Cellular In Vitro Assay for Determining Vasopressin Receptor Activity
(§2) The identification of agonists and antagonists of the V 1 a and V2 vasopressin receptors from humans, rats and dogs as well as the quantification of the activity of the compounds of the invention is carried out using recombinant cell lines. These cell lines originally derive from a hamster's ovary epithelial cell (Chinese Hamster Ovary, CHO K1, ATCC: American Type Culture Collection, Manassas, Va. 20108, USA). The test cell lines constitutively express the human, rat or dog
(§3) V1 a or V2 receptors. In case of the Gag-coupled V 1 a receptors, cells are also stably transfected with a modified form of the calcium-sensitive photoproteins aequorin (human and rat V1a) or obelin (dog V 1 a), which, after reconstitution with the cofactor coelenterazine, emit light when there are increases in free calcium concentrations [Rizzuto R, Simpson A W, Brini M, Pozzan T, Nature 358, 325-327 (1992); Illarionov B A, Bondar V S, Illarionova V A, Vysotski E S, Gene 153 (2), 273-274 (1995)]. The resulting vasopressin receptor cells react to stimulation of the recombinantly expressed V 1 a receptors by intracellular release of calcium ions, which can be quantified by the resulting photoprotein luminescence. The Gs-coupled V2 receptors are stably transfected into cell lines expressing the gene for firefly luciferase under control of a CRE-responsible promoter. Activation of V2 receptors induces the activation of the CRE-responsive promoter via cAMP increase, thereby inducing the expression of firefly luciferase. The light emitted by photoproteins of V1a cell lines as well as the light emitted by firefly luciferase of V2 cell lines corresponds to the activation or inhibition of the respective vasopressin receptor. The bioluminescence of the cell lines is detected using a suitable luminometer [Milligan G, Marshall F, Rees S, Trends in Pharmacological Sciences 17, 235-237 (1996)].
Vasopressin V1a Receptor Cell Lines:
On the day before the assay, the cells are plated out in culture medium (DMEM/F12, 2% FCS, 2 mM glutamine, 10 mM HEPES, 5 μg/ml coelenterazine) in 384-well microtiter plates and kept in a cell incubator (96% humidity, 5% v/v CO2, 37° C.). On the day of the assay, test compounds in various concentrations are placed for 10 minutes in the wells of the microtiter plate before the agonist [Arg^8]-vasopressin at EC50 concentration is added. The resulting light signal is measured immediately in a luminometer.
(§4) Table 1A below lists individual IC50 values for the compounds of the invention (including racemic mixtures as well as separated enantiomers) that were obtained from cell lines transfected with the human V1a or V2 receptor: […]

Test [2] addresses T2, human V2 receptor (Homo sapiens, UniProt P30518).
T2 construct: expressed in transfected cells; host or cells: CHO K1 (Chinese hamster ovary) expressing firefly luciferase under a CRE-responsive promoter
Nature of the test: Cellular in vitro assay for determining vasopressin receptor activity (V2 cell line, CRE-luciferase). In kind it is cell-based. To be noted: CHO cell line transfected with the human V2 receptor; agonist [Arg8]-vasopressin at EC50 concentration; 3 hours incubation; read-out: IC50 hV2. The method, then:
as §1, §2, §3
Vasopressin V2 Receptor Cell Lines:
On the day before the assay, the cells are plated out in culture medium (DMEM/F12, 2% FCS, 2 mM glutamine, 10 mM HEPES) in 384-well microtiter plates and kept in a cell incubator (96% humidity, 5% v/v CO2, 37° C.). On the day of the assay, test compounds in various concentrations and the agonist [Arg^8]-vasopressin at EC50 concentration are added together to the wells, and plates are incubated for 3 hours in a cell incubator. Upon addition of the cell lysis reagent Triton™ and the substrate luciferin, luminescence of firefly luciferase is measured in a luminometer.
as §4

T2 sequence (P30518 whole entry): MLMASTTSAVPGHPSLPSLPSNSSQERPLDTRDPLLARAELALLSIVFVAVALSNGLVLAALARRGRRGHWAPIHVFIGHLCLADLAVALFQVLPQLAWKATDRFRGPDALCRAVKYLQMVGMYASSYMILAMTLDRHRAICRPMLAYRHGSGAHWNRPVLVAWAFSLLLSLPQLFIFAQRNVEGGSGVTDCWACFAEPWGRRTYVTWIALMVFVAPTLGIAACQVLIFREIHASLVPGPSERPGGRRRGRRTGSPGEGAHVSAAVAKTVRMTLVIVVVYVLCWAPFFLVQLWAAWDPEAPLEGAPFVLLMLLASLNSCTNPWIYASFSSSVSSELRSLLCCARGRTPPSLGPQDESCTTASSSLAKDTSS
T1 sequence (P37288 whole entry): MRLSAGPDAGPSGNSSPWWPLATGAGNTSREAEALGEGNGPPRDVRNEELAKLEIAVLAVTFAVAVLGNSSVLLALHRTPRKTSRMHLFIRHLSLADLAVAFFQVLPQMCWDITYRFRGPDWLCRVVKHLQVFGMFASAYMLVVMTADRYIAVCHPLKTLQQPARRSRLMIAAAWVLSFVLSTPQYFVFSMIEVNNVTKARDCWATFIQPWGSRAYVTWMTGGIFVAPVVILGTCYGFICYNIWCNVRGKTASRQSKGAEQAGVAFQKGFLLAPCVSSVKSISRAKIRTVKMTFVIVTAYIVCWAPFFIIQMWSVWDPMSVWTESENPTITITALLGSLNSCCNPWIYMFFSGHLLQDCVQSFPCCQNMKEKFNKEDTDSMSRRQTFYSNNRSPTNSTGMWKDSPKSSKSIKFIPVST

For the molecule `COc1nccnc1-n1nc(Cn2nc(-c3ccc(Cl)cc3)n(C[C@H](O)C(F)(F)F)c2=O)nc1C(N)=O` [Example 9, 3-({3-(4-Chlorophenyl)-5-oxo-4-[(2S)-3,3,3-trifluoro-2-hydroxypropyl]-4,5-dihydro-1H-1,2,4-triazol-1-yl}methyl)-1-(3-methoxypyrazin-2-yl)-1H-1,2,4-triazole-5-carboxamide], in test [1], the half-maximal inhibitory concentration (IC50) worked out at 93.5 nM and the “ratio IC50 hV2/hV1a” value is reported as 2.6. In addition, in test [2], the IC50 turned out to be 245 nM.
Take `NC(=O)c1nc(Cn2nc(-c3ccc(Cl)cc3)n(C[C@H](O)C(F)(F)F)c2=O)nn1-c1cccnc1Cl` [Example 10, 3-({3-(4-Chlorophenyl)-5-oxo-4-[(2S)-3,3,3-trifluoro-2-hydroxypropyl]-4,5-dihydro-1H-1,2,4-triazol-1-yl}methyl)-1-(2-chloropyridin-3-yl)-1H-1,2,4-triazole-5-carboxamide]: in test [1], the half-maximal inhibitory concentration (IC50) is 97.5 nM and the “ratio IC50 hV2/hV1a” value was found to be 1.6. Moreover, in test [2], the 50% inhibitory concentration (IC50) worked out at 152 nM.
The corresponding values for `NC(=O)c1nc(Cn2nc(-c3ccc(Cl)cc3)n(C[C@H](O)C(F)(F)F)c2=O)nn1-c1ccccn1` [Example 11, 3-({3-(4-Chlorophenyl)-5-oxo-4-[(2S)-3,3,3-trifluoro-2-hydroxypropyl]-4,5-dihydro-1H-1,2,4-triazol-1-yl}methyl)-1-(pyridin-2-yl)-1H-1,2,4-triazole-5-carboxamide] are 115 nM, 1.3 and 150 nM.
The corresponding values for `Cc1ccnc(Cl)c1-n1nc(Cn2nc(-c3ccc(Cl)cc3)n(C[C@H](O)C(F)(F)F)c2=O)nc1C(N)=O` [Example 12, 1-(2-Chloro-4-methylpyridin-3-yl)-3-({3-(4-chlorophenyl)-5-oxo-4-[(2 S)-3,3,3-trifluoro-2-hydroxypropyl]-4,5-dihydro-1H-1,2,4-triazol-1-yl}methyl)-1H-1,2,4-triazole-5-carboxamide] are 125 nM, 1.2 and 150 nM.
As to `CCOc1ncccc1-n1nc(Cn2nc(-c3ccc(Cl)cc3)n(C[C@H](O)C(F)(F)F)c2=O)nc1C(N)=O` [Example 13, 3-({3-(4-Chlorophenyl)-5-oxo-4-[(2S)-3,3,3-trifluoro-2-hydroxypropyl]-4,5-dihydro-1H-1,2,4-triazol-1-yl}methyl)-1-(2-ethoxypyridin-3-yl)-1H-1,2,4-triazole-5-carboxamide], in test [1], the concentration for half-maximal inhibition (IC50) came out at 135 nM and the “ratio IC50 hV2/hV1a” value is listed as 3.9. For the same molecule, in test [2], the IC50 worked out at 525 nM.
The corresponding values for `NC(=O)c1ccncc1-n1nc(Cn2nc(-c3ccc(Cl)cc3)n(C[C@H](O)C(F)(F)F)c2=O)nc1C(N)=O` [Example 14, 3-[5-Carbamoyl-3-({3-(4-chlorophenyl)-5-oxo-4-[(2S)-3,3,3-trifluoro-2-hydroxypropyl]-4,5-dihydro-1H-1,2,4-triazol-1-yl}methyl)-1H-1,2,4-triazol-1-yl]pyridine-4-carboxamide] are 152 nM, 4.2 and 638 nM.
Consider `NC(=O)c1nc(Cn2nc(-c3ccc(Cl)cc3)n(C[C@H](O)C(F)(F)F)c2=O)nn1-c1cc(Cl)ccn1` [Example 15, 3-({3-(4-Chlorophenyl)-5-oxo-4-[(2S)-3,3,3-trifluoro-2-hydroxypropyl]-4,5-dihydro-1H-1,2,4-triazol-1-yl}methyl)-1-(4-chloropyridin-2-yl)-1H-1,2,4-triazole-5-carboxamide], for which the values for the half-maximal inhibitory concentration (IC50) in test [1] and in test [2] were 175 nM and 35 nM, respectively. The “ratio IC50 hV2/hV1a” value in test [1] came out at 0.2.
As to `NC(=O)c1nc(Cn2nc(-c3ccc(Cl)cc3)n(C[C@H](O)C(F)(F)F)c2=O)nn1-c1ncccn1` [Example 16, 3-({3-(4-Chlorophenyl)-5-oxo-4-[(2S)-3,3,3-trifluoro-2-hydroxypropyl]-4,5-dihydro-1H-1,2,4-triazol-1-yl}methyl)-1-(pyrimidin-2-yl)-1H-1,2,4-triazole-5-carboxamide], in test [1], the IC50 is 690 nM and the “ratio IC50 hV2/hV1a” value came out at 3.3. In addition, the IC50 in test [2] was determined as 2250 nM.
The corresponding values for `NC(=O)c1nc(Cn2nc(-c3ccc(Cl)cc3)n(C[C@H](O)C(F)(F)F)c2=O)nn1-c1ccccc1Br` [Example 17, 1-(2-Bromophenyl)-3-({3-(4-chlorophenyl)-5-oxo-4-[(2S)-3,3,3-trifluoro-2-hydroxypropyl]-4,5-dihydro-1H-1,2,4-triazol-1-yl}methyl)-1H-1,2,4-triazole-5-carboxamide] are 0.45 nM, 15.6 and 7 nM.
The corresponding values for `CSc1ccccc1-n1nc(Cn2nc(-c3ccc(Cl)cc3)n(C[C@H](O)C(F)(F)F)c2=O)nc1C(N)=O` [Example 18, 3-({3-(4-Chlorophenyl)-5-oxo-4-[(2S)-3,3,3-trifluoro-2-hydroxypropyl]-4,5-dihydro-1H-1,2,4-triazol-1-yl}methyl)-1-[2-(methylsulfanyl)phenyl]-1H-1,2,4-triazole-5-carboxamide] are 0.54 nM, 3.1 and 1.65 nM.
The corresponding values for `Cc1ccccc1-n1nc(Cn2nc(-c3ccc(Cl)cc3)n(C[C@H](O)C(F)(F)F)c2=O)nc1C(N)=O` [Example 19, 3-({3-(4-Chlorophenyl)-5-oxo-4-[(2S)-3,3,3-trifluoro-2-hydroxypropyl]-4,5-dihydro-1H-1,2,4-triazol-1-yl}methyl)-1-(2-methylphenyl)-1H-1,2,4-triazole-5-carboxamide] are 0.65 nM, 7.5 and 4.91 nM.
Take `CCc1ccccc1-n1nc(Cn2nc(-c3ccc(Cl)cc3)n(C[C@H](O)C(F)(F)F)c2=O)nc1C(N)=O` [Example 20, 3-({3-(4-Chlorophenyl)-5-oxo-4-[(2S)-3,3,3-trifluoro-2-hydroxypropyl]-4,5-dihydro-1H-1,2,4-triazol-1-yl}methyl)-1-(2-ethylphenyl)-1H-1,2,4-triazole-5-carboxamide]: the half-maximal inhibitory concentration (IC50) came out at 0.75 nM in test [1] and 2.73 nM in test [2]. Also, the “ratio IC50 hV2/hV1a” value in test [1] is given as 3.7.
Regarding `NC(=O)c1nc(Cn2nc(-c3ccc(Cl)cc3)n(C[C@H](O)C(F)(F)F)c2=O)nn1-c1c(F)cccc1Cl` [Example 21, 1-(2-Chloro-6-fluorophenyl)-3-({3-(4-chlorophenyl)-5-oxo-4-[(2S)-3,3,3-trifluoro-2-hydroxypropyl]-4,5-dihydro-1H-1,2,4-triazol-1-yl}methyl)-1H-1,2,4-triazole-5-carboxamide], the figures for the half-inhibitory concentration (IC50) in test [1] and in test [2] were 0.75 nM and 5.25 nM, respectively. Moreover, in test [1], the “ratio IC50 hV2/hV1a” value came out at 7.0.
The corresponding values for `NC(=O)c1nc(Cn2nc(-c3ccc(Cl)cc3)n(C[C@H](O)C(F)(F)F)c2=O)nn1-c1c(Cl)cccc1Cl` [Example 22, 3-({3-(4-Chlorophenyl)-5-oxo-4-[(2S)-3,3,3-trifluoro-2-hydroxypropyl]-4,5-dihydro-1H-1,2,4-triazol-1-yl}methyl)-1-(2,6-dichlorophenyl)-1H-1,2,4-triazole-5-carboxamide] are 1.65 nM, 3.63 nM and 2.2.
As to `Cc1cccc(C)c1-n1nc(Cn2nc(-c3ccc(Cl)cc3)n(C[C@H](O)C(F)(F)F)c2=O)nc1C(N)=O` [Example 23, 3-({3-(4-Chlorophenyl)-5-oxo-4-[(2S)-3,3,3-trifluoro-2-hydroxypropyl]-4,5-dihydro-1H-1,2,4-triazol-1-yl}methyl)-1-(2,6-dimethylphenyl)-1H-1,2,4-triazole-5-carboxamide], the figures for the IC50 in test [1] and in test [2] were 2.45 nM and 2.53 nM, respectively. The “ratio IC50 hV2/hV1a” value in test [1] was determined as 1.0.
